# What was measured:
# Proteus mirabilis = assay: Antibacterial activity against Proteus mirabilis 09-1 by agar dilution method; type: functional
# Salmonella typhi = assay: Antibacterial activity against Salmonella typhi H901 by agar dilution method; type: functional, Salmonella enterica subsp. enterica serovar Typhi; details: Salmonella enterica
# Klebsiella pneumoniae [1] = assay: Antibacterial activity against extended-spectrum beta-lactamase-positive Klebsiella pneumoniae ATCC 700603 by agar dilution method; type: functional
# Enterococcus faecium [2] = assay: Antibacterial activity against vancomycin-resistant Enterococcus faecium 05-8 by agar dilution method; type: functional
# Staphylococcus aureus [3] = assay: Antibacterial activity against methicillin-sensitive Staphylococcus aureus 15 by agar dilution method; type: functional
# Staphylococcus aureus [4] = assay: Antibacterial activity against methicillin-sensitive Staphylococcus aureus 09-6 by agar dilution method; type: functional
# Escherichia coli [5] = assay: Antibacterial activity against extended-spectrum beta-lactamase-negative Escherichia coli 1515 by agar dilution method; type: functional
# Escherichia coli [6] = assay: Antibacterial activity against extended-spectrum beta-lactamase-negative Escherichia coli ATCC 25922 by agar dilution method; type: functional
# Pseudomonas aeruginosa [7] = assay: Antibacterial activity against Pseudomonas aeruginosa ATCC 27853 by agar dilution method; type: functional
# Enterococcus faecalis [8] = assay: Antibacterial activity against vancomycin-resistant Enterococcus faecalis ATCC 51299 by agar dilution method; type: functional
# Enterococcus faecium [9] = assay: Antibacterial activity against vancomycin-resistant Enterococcus faecium ATCC 700221 by agar dilution method; type: functional
# Pseudomonas aeruginosa [10] = assay: Antibacterial activity against Pseudomonas aeruginosa 09-14 by agar dilution method; type: functional
# Providencia rettgeri = assay: Antibacterial activity against Providencia rettgeri ATCC 31052 by agar dilution method; type: functional
# Serratia marcescens = assay: Antibacterial activity against Serratia marcescens 41002 by agar dilution method; type: functional
# [11] = tested on: Staphylococcus epidermidis; assay: Antibacterial activity against methicillin-sensitive Staphylococcus epidermidis ATCC 12228 by agar dilution method; type: functional
# [12] = Cytotoxicity against HEK293T cells after 48 hrs by MTS assay; type: cell-based, HEK-293T; details: human
# Enterococcus faecium [13] = assay: Antibacterial activity against vancomycin-sensitive Enterococcus faecium 09-10 by agar dilution method; type: functional
# Proteus vulgaris = assay: Antibacterial activity against Proteus vulgaris ATCC 29905 by agar dilution method; type: functional
# Klebsiella aerogenes = assay: Antibacterial activity against Enterobacter aerogenes 45102 by agar dilution method; type: functional
# Klebsiella pneumoniae [14] = assay: Antibacterial activity against extended-spectrum beta-lactamase-positive Klebsiella pneumoniae 09-25 by agar dilution method; type: functional
# Escherichia coli [15] = assay: Antibacterial activity against extended-spectrum beta-lactamase-negative Escherichia coli 09-20 by agar dilution method; type: functional
# Staphylococcus aureus [16] = assay: Antibacterial activity against methicillin-resistant Staphylococcus aureus ATCC 33591 by agar dilution method; type: functional
# Citrobacter freundii = assay: Antibacterial activity against Citrobacter freundii ATCC 43864 by agar dilution method; type: functional
# Klebsiella pneumoniae [17] = assay: Antibacterial activity against extended-spectrum beta-lactamase-negative Klebsiella pneumoniae 7 by agar dilution method; type: functional
# [18] = tested on: Staphylococcus epidermidis; assay: Antibacterial activity against methicillin-resistant Staphylococcus epidermidis 09-3 by agar dilution method; type: functional
# Enterobacter cloacae = assay: Antibacterial activity against Enterobacter cloacae 45301 by agar dilution method; type: functional
# Pseudomonas aeruginosa [19] = assay: Antibacterial activity against Pseudomonas aeruginosa PAO1 by agar dilution method; type: functional
# Morganella morganii = assay: Antibacterial activity against Morganella morganii ATCC 25830 by agar dilution method; type: functional
# Enterococcus faecalis [20] = assay: Antibacterial activity against vancomycin-sensitive Enterococcus faecalis 09-8 by agar dilution method; type: functional
# Klebsiella pneumoniae [21] = assay: Potency index, ratio of levofloxacin MIC to test compound MIC for Klebsiella pneumoniae ATCC BAA-2146 expressing NDM-1; type: functional
# Klebsiella pneumoniae [22] = assay: Antibacterial activity against extended-spectrum beta-lactamase-negative Klebsiella pneumoniae 09-8 by agar dilution method; type: functional
# [23] = tested on: Staphylococcus epidermidis; assay: Antibacterial activity against methicillin-sensitive Staphylococcus epidermidis 09-9 by agar dilution method; type: functional
# Escherichia coli [24] = assay: Antibacterial activity against extended-spectrum beta-lactamase-positive Escherichia coli 09-1 by agar dilution method; type: functional
# Staphylococcus aureus [25] = assay: Antibacterial activity against methicillin-sensitive Staphylococcus aureus ATCC 29213 by agar dilution method; type: functional
# Staphylococcus aureus [26] = assay: Antibacterial activity against methicillin-resistant Staphylococcus aureus 09-13 by agar dilution method; type: functional
# [27] = tested on: Acinetobacter calcoaceticus; assay: Antibacterial activity against Acinetobacter calcoaceticus ATCC 19606 by agar dilution method; type: functional
# Klebsiella pneumoniae [28] = assay: Antibacterial activity against Klebsiella pneumoniae ATCC BAA-2146 expressing NDM-1 by agar dilution method; type: functional
# Enterococcus faecalis [29] = assay: Antibacterial activity against vancomycin-sensitive Enterococcus faecalis ATCC 29212 by agar dilution method; type: functional
# Enterococcus faecalis [30] = assay: Antibacterial activity against vancomycin-resistant Enterococcus faecalis 09-9 by agar dilution method; type: functional
# Enterococcus faecium [31] = assay: Potency index, ratio of vancomycin MIC to test compound MIC for vancomycin-resistant Enterococcus faecium ATCC 700221; type: functional
# [32] = tested on: Staphylococcus epidermidis; assay: Potency index, ratio of vancomycin MIC to test compound MIC for methicillin-resistant Staphylococcus epidermidis 09-3; type: functional
# [33] = tested on: Staphylococcus epidermidis; assay: Potency index, ratio of levofloxacin MIC to test compound MIC for methicillin-resistant Staphylococcus epidermidis 09-3; type: functional
# Staphylococcus aureus [34] = assay: Potency index, ratio of levofloxacin MIC to test compound MIC for methicillin-resistant Staphylococcus aureus 09-13; type: functional
# Enterococcus faecalis [35] = assay: Potency index, ratio of vancomycin MIC to test compound MIC for vancomycin-resistant Enterococcus faecalis 09-9; type: functional
# Staphylococcus aureus [36] = assay: Potency index, ratio of vancomycin MIC to test compound MIC for methicillin-resistant Staphylococcus aureus 09-13; type: functional
smiles,measurement,setting,value
CN(C)C(=N)c1ccc2cc(-c3ccc(Oc4ccc(-c5cc6ccc(C(=N)N(C)C)cc6[nH]5)cc4)cc3)[nH]c2c1,MIC,Proteus mirabilis,32 µg/mL
same,MIC,Salmonella typhi,16 µg/mL
same,MIC,Klebsiella pneumoniae [1],8 µg/mL
same,MIC,Enterococcus faecium [2],2 µg/mL
same,MIC,Staphylococcus aureus [3],0.25 µg/mL
same,MIC,Staphylococcus aureus [4],0.25 µg/mL
same,MIC,Escherichia coli [5],4 µg/mL
same,MIC,Escherichia coli [6],4 µg/mL
same,MIC,Pseudomonas aeruginosa [7],128 µg/mL
same,MIC,Enterococcus faecalis [8],1 µg/mL
same,MIC,Enterococcus faecium [9],2 µg/mL
same,MIC,Pseudomonas aeruginosa [10],> 128 µg/mL
same,MIC,Providencia rettgeri,8 µg/mL
same,MIC,Serratia marcescens,32 µg/mL
same,MIC,[11],0.125 µg/mL
same,CC50 at 48 h,[12],21.6 µg/mL
same,MIC,Enterococcus faecium [13],2 µg/mL
same,MIC,Proteus vulgaris,8 µg/mL
same,MIC,Klebsiella aerogenes,8 µg/mL
same,MIC,Klebsiella pneumoniae [14],8 µg/mL
same,MIC,Escherichia coli [15],8 µg/mL
same,MIC,Staphylococcus aureus [16],0.25 µg/mL
same,MIC,Citrobacter freundii,8 µg/mL
same,MIC,Klebsiella pneumoniae [17],8 µg/mL
same,MIC,[18],0.25 µg/mL
same,MIC,Enterobacter cloacae,64 µg/mL
same,MIC,Pseudomonas aeruginosa [19],> 128 µg/mL
same,MIC,Morganella morganii,> 128 µg/mL
same,MIC,Enterococcus faecalis [20],2 µg/mL
same,Ratio,Klebsiella pneumoniae [21],>16
same,MIC,Klebsiella pneumoniae [22],8 µg/mL
same,MIC,[23],0.25 µg/mL
same,MIC,Escherichia coli [24],8 µg/mL
same,MIC,Staphylococcus aureus [25],0.25 µg/mL
same,MIC,Staphylococcus aureus [26],0.25 µg/mL
same,MIC,[27],> 128 µg/mL
same,MIC,Klebsiella pneumoniae [28],8 µg/mL
same,MIC,Enterococcus faecalis [29],0.5 µg/mL
same,MIC,Enterococcus faecalis [30],2 µg/mL
CNC(=N)c1ccc2cc(-c3ccc(Oc4ccc(-c5cc6ccc(C(=N)NC)cc6[nH]5)cc4)cc3)[nH]c2c1,Ratio,Enterococcus faecium [31],128 - 256
same,Ratio,[32],4 - 8
same,MIC,Proteus mirabilis,> 128 µg/mL
same,MIC,Salmonella typhi,128 µg/mL
same,MIC,Klebsiella pneumoniae [1],> 128 µg/mL
same,MIC,Enterococcus faecium [2],2 µg/mL
same,MIC,Staphylococcus aureus [3],1 µg/mL
same,MIC,Staphylococcus aureus [4],1 µg/mL
same,MIC,Escherichia coli [5],128 µg/mL
same,MIC,Escherichia coli [6],128 µg/mL
same,MIC,Pseudomonas aeruginosa [7],> 128 µg/mL
same,MIC,Enterococcus faecalis [8],1 µg/mL
same,MIC,Enterococcus faecium [9],0.5 µg/mL
same,MIC,Pseudomonas aeruginosa [10],> 128 µg/mL
same,MIC,Providencia rettgeri,> 128 µg/mL
same,MIC,Serratia marcescens,> 128 µg/mL
same,MIC,[11],0.25 µg/mL
same,CC50 at 48 h,[12],12.2 µg/mL
same,MIC,Enterococcus faecium [13],1 µg/mL
same,MIC,Proteus vulgaris,> 128 µg/mL
same,Ratio,[33],16 - 32
same,MIC,Klebsiella aerogenes,> 128 µg/mL
same,MIC,Klebsiella pneumoniae [14],> 128 µg/mL
same,MIC,Escherichia coli [15],> 128 µg/mL
same,MIC,Staphylococcus aureus [16],1 µg/mL
same,Ratio,Staphylococcus aureus [34],16 - 32
same,MIC,Citrobacter freundii,> 128 µg/mL
same,MIC,Klebsiella pneumoniae [17],> 128 µg/mL
same,MIC,[18],0.5 µg/mL
same,Ratio,Enterococcus faecalis [35],128 - 256
same,MIC,Enterobacter cloacae,> 128 µg/mL
same,MIC,Pseudomonas aeruginosa [19],> 128 µg/mL
same,MIC,Morganella morganii,128 µg/mL
same,MIC,Enterococcus faecalis [20],1 µg/mL
same,Ratio,Staphylococcus aureus [36],4 - 8
same,MIC,Klebsiella pneumoniae [22],> 128 µg/mL
same,MIC,[23],1 µg/mL
same,MIC,Escherichia coli [24],128 µg/mL
same,MIC,Staphylococcus aureus [25],1 µg/mL
same,MIC,Staphylococcus aureus [26],0.5 µg/mL
same,MIC,[27],> 128 µg/mL
same,MIC,Klebsiella pneumoniae [28],> 128 µg/mL
same,MIC,Enterococcus faecalis [29],1 µg/mL
same,MIC,Enterococcus faecalis [30],1 µg/mL
N=C(NC1CC1)c1ccc2cc(-c3ccc(Oc4ccc(-c5cc6ccc(C(=N)NC7CC7)cc6[nH]5)cc4)cc3)[nH]c2c1,MIC,Proteus mirabilis,> 128 µg/mL
same,MIC,Salmonella typhi,> 128 µg/mL
same,MIC,Klebsiella pneumoniae [1],> 128 µg/mL
same,MIC,Enterococcus faecium [2],4 µg/mL
same,MIC,Staphylococcus aureus [3],4 µg/mL
same,MIC,Staphylococcus aureus [4],4 µg/mL
same,MIC,Escherichia coli [5],128 µg/mL
same,MIC,Escherichia coli [6],128 µg/mL
same,MIC,Pseudomonas aeruginosa [7],> 128 µg/mL
same,MIC,Enterococcus faecalis [8],4 µg/mL
same,MIC,Enterococcus faecium [9],4 µg/mL
same,MIC,Pseudomonas aeruginosa [10],> 128 µg/mL
same,MIC,Providencia rettgeri,> 128 µg/mL
same,MIC,Serratia marcescens,> 128 µg/mL
same,MIC,[11],1 µg/mL
same,CC50 at 48 h,[12],36.9 µg/mL
same,MIC,Enterococcus faecium [13],8 µg/mL
same,MIC,Proteus vulgaris,> 128 µg/mL
same,MIC,Klebsiella aerogenes,128 µg/mL
same,MIC,Klebsiella pneumoniae [14],> 128 µg/mL
same,MIC,Escherichia coli [15],128 µg/mL
same,MIC,Staphylococcus aureus [16],4 µg/mL
same,MIC,Citrobacter freundii,> 128 µg/mL
same,MIC,Klebsiella pneumoniae [17],> 128 µg/mL
same,MIC,[18],2 µg/mL
same,MIC,Enterobacter cloacae,> 128 µg/mL
same,MIC,Pseudomonas aeruginosa [19],> 128 µg/mL
same,MIC,Morganella morganii,128 µg/mL
same,MIC,Enterococcus faecalis [20],4 µg/mL
same,MIC,Klebsiella pneumoniae [22],> 128 µg/mL
same,MIC,[23],4 µg/mL
same,MIC,Escherichia coli [24],128 µg/mL
same,MIC,Staphylococcus aureus [25],4 µg/mL
same,MIC,Staphylococcus aureus [26],4 µg/mL
same,MIC,[27],> 128 µg/mL
same,MIC,Klebsiella pneumoniae [28],> 128 µg/mL
same,MIC,Enterococcus faecalis [29],4 µg/mL
same,MIC,Enterococcus faecalis [30],8 µg/mL

# Source: ChEMBL document CHEMBL4002623, “Synthesis and in vitro activity of dicationic indolyl diphenyl ethers as novel potent antibiotic agents against drug-resistant bacteria” (Bioorg Med Chem Lett, 2017)
